Patent publication US20080227824A1, “5-(Phenylisoxazolylethoxy) - Triazol- 3 -Yl Substituted Pyridine Compounds for the Treatment of Neurological, Psychiatric or Pain Disorders” (Astrazeneca AB, priority 2005, published 2008)

Key:
[1] = Moisture sorption / deliquescence of the salts at relative humidity; type: physicochemical
[2] = Intrinsic dissolution rate, low-volume rotating disc method; type: physicochemical; conditions: salt made at 1 g scale from ethanol; disc 0.07 cm^2, 500 rpm, 50 mL USP Phosphate buffer pH 6.8 at 37° C
Experimental: The salt manufactured at 1 g scale from ethanol was further investigated for its intrinsic dissolution rate and compared to the free base of 4-(5-{(1R)-1-[5-(3-chlorophenyl)isoxazol-3-yl]ethoxy}-4-methyl-4H-1,2,4-triazol-3-yl)pyridine. […] Dissolution rates of the base and salt were measured with a low-volume rotating disc method. Discs were compressed from pure compound and centrically mounted in a disc holder with an exposed area of 0.07 cm^2. The disc holder rotated at 500 rpm immersed in 50 mL USP Phosphate buffer pH 6.8 at 37° C. The compound was analysed UV-Online by a Spectrophotometer with a flow cell and a peristaltic pump with continuous circulation.

SMILES	relative humidity at which the salt deliquesces ([1]; salt manufactured again from ethanol at 68° C)	relative humidity at which the salt deliquesces ([1]; salt recrystallised from the oiled salt in ethanol)	intrinsic dissolution rate of the salt as compared to the free base [2] [times]	relative humidity at which moisture sorption is increased ([1]; first batch from ethanol)
C[C@@H](Oc1nnc(-c2ccncc2)n1C)c1cc(-c2cccc(Cl)c2)on1.O=S(=O)(O)O [Example 18, 4-(5-{(1R)-1-[5-(3-chlorophenyl)isoxazol-3-yl]ethoxy}-4-methyl-4H-1,2,4-triazol-3-yl)pyridine sulphate]	70-80 % RH	60-70 % relative humidity		
C[C@@H](Oc1nnc(-c2ccncc2)n1C)c1cc(-c2cccc(Cl)c2)on1.Cl [Example 17, 4-(5-{(1R)-1-[5-(3-chlorophenyl)isoxazol-3-yl]ethoxy}-4-methyl-4H-1,2,4-triazol-3-yl)pyridine hydrochloride]			1000	90-95 % RH
